Consider four compounds from patent US5389621A, “Method of enhancing the anticoagulant effects of aspirin using salicylamide” (University of Medicine and Dentistry of New Jersey, priority 1994, dated 1995).

Entries after “also recorded” stand apart in the source; their conditions may differ.

The conditions of series [1]: cited from earlier work; for Absorption (ASA) / bioavailability (SAM) from oral solution vs solid forms: oral solutions vs tablets or suspensions.
Series [2] in a line: Plasma kinetics of total 14C after oral 14C-salicylamide alone or with aspirin. The class given is in vivo, male Sprague-Dawley rats. To be noted: for AUC.infin. of 14C: mean ± SE, n=6. How it is done: (§1) Male adult Sprague-Dawley rats (300-325 gm) obtained from Charles River Breeding Laboratory, N. Wilmington, Mass. were quarantined for one week. All animals were identified by ear punching. Food and water were provided ad libitum. The animals were maintained on rodent lab chow diet in a controlled environment with 50% humidity and 12 hour light/dark cycle.
(§2) Two dose combinations were employed. The low dose was 10 and/or 3 mg/kg of ASA and/or SAM, respectively, while the high dose was double the low dose. These doses were approximately equal (w/w) to that in commercially available combinations, e.g., BC® formula, when administered to humans.
(§3) Rats were divided into 2 groups; the first group consisted of 30 rats which were assigned to 5 subgroups, 6 rats each, according to the following treatment scheme:
(§4) The second group consisted of 4 subgroups and were administered double the dose received by the first group (with the exception of subgroup III).
The rats were fasted overnight (~18 hr.) before administration of the treatments and were allowed water ad libitum. The drug(s) to be given were prepared fresh in the morning of the study, dissolved in 2.5 ml of deionized water and gavaged to rats. […]
(§5) The samples were collected by heparinized plastic syringes and transferred to polyethylene test tubes. The samples, ~300 μl each, were rapidly centrifuged at 1800×g for 15 minutes at 4° C.
(§6) The terminal elimination rate constant (ke) was estimated by linear regression of the terminal β phase of the plasma concentration vs. time curves. The area under the curve (AUC.infin.) was calculated by using the trapezoidal method from zero to the last measured plasma concentration. The half-life of elimination (t1/2β) was obtained by the equation t1/2β =0.693/ke.
(§7) Total body clearance (ClT) was estimated by the equation ClT =Dose/AUC assuming a complete absorption of ASA and SAM (Iwamoto et al., 1982; Iwamoto et al., 1983). The apparent volume of distribution Vd was calculated from the formula, Vd =ClT /ke.

Series [3] is described as follows: Plasma kinetics of total 14C after oral 14C-aspirin alone or with salicylamide. In kind it is in vivo, male Sprague-Dawley rats. As to conditions: for Effect on AUC.infin. of 14C / Effect on total body clearance (ClT) of 14C: after 14C-ASA; for AUC.infin. of 14C: mean ± SE, n=6. As to the method:
as §1, §2, §3, §4
The rats were fasted overnight (~18 hr.) before administration of the treatments and were allowed water ad libitum. The drug(s) to be given were prepared fresh in the morning of the study, dissolved in 2.5 ml of deionized water and gavaged to rats.
The specific activity of ASA was 739 and 369 dpm/μg for the low and high dose treatments, respectively.
as §5, §6, §7

The mark [4] stands for this setting: ASA 20 mg/kg with 14C-SAM 6 mg/kg.
Where [5] appears, read: oral 14C-ASA 10 mg/kg, alone or with SAM 3 mg/kg.
[6] abbreviates: oral 14C-ASA 20 mg/kg, alone or with SAM 6 mg/kg.
[7] abbreviates: oral 14C-SAM 3 mg/kg, alone or with ASA 10 mg/kg.
Where [8] appears, read: oral 14C-SAM 6 mg/kg, alone or with ASA 20 mg/kg.

Take `CC(=O)Oc1ccccc1C(=O)O` [ASA, acetylsalicylic acid]: the “Apparent volume of distribution” value in series [1] (children) was 0.12 to 0.14 L/kg. Moreover, the “Fraction reaching the peripheral circulation intact” value in series [1] (oral aspirin, man) was “about 68%”. Further, in series [1] (oral soluble aspirin preparation, humans), the “Time of peak plasma concentration” value is 15 to 25 min. Further, the “Absorption (ASA) / bioavailability (SAM) from oral solution vs solid forms” value in series [1] is recorded as “superior”. In addition, the “Absorption” value in series [1] (oral, stomach and upper small intestine) was “rapidly and usually completely absorbed”. Moreover, in series [2] (setting [4]), the “Effect of ASA on AUC.infin. of 14C after 14C-SAM” value was “significantly increased” and the “Effect of ASA on elimination half-life of 14C after 14C-SAM” value is given as “significantly increased”. Besides, the “Effect of ASA on SAM kinetics” value in series [2] (ASA low dose 10 mg/kg) is given as “did not significantly effect SAM kinetics”. In addition, the “Effect of ASA on total body clearance of SAM” value in series [2] (low and high dose combinations) is listed as “tended to decrease”.
`NC(=O)c1ccccc1O` [SAM, Salicylamide]: the “Absorption (ASA) / bioavailability (SAM) from oral solution vs solid forms” value in series [1] was “superior”. Besides, in series [3], the “Effect on AUC.infin. of 14C” value is “further increased, albeit not significantly” and the “Effect on total body clearance (ClT) of 14C” value is “tended to decrease the ClT after the high dose combination”. Further, the “Duration of the SAM effect on plasma 14C” value in series [3] (following coadministration with 14C-ASA) is “approximately 4 hours”. The “Increase of Cmax of total 14C by SAM” value in series [3] (high dose 14C-ASA coadministration) is approximately 25%. The “Effect of SAM on 14C-ASA absorption half-life” value in series [3] (rat, in vivo) is given as “no effect”. The “Effect of SAM coadministration on Cmax / plasma level of total 14C” value in series [3] (with 14C-ASA) is given as “enhanced maximum plasma concentration (Cmax) of total ^14 C dose-dependently; also recorded: dose-dependently increases the plasma level of total ^14 C radioactivity”.
Regarding `CC(=O)Oc1ccccc1[14C](=O)O` [^14 C-ASA], in series [3], the “Effect on AUC.infin. of 14C” value was “showed a dose dependent increase” and the “Effect on total body clearance (ClT) of 14C” value is on record as “decreased dose-dependently”. Besides, the “T1/2β of 14C” value in series [3] (high dose, 14C-ASA alone or with SAM) came out at 5.1 h. The “Elimination half-life of 14C” value in series [3] (low dose of 14C-ASA alone or in combination with SAM, from 6-24 hour plasma concentrations, 10 mg/kg) was 2.8 to 3.2 h. In series [3] (setting [5]), the “AUC4hr of 14C (first 4 hr)” value was determined as 99.6 ± 10.6 µg·h/mL, the “C1T total body clearance of 14C” value came to 10.3 ± 1.1 mL/h, the “Cmax of 14C” value is 29900 ± 2300 ng/mL and the “T1/2abs absorption half-life of 14C” value was 9.1 ± 1.1 min. Further, in series [3] (setting [5]), the “T1/2β elimination half-life of 14C” value turned out to be 3.2 ± 0.2 h, the “Vd apparent volume of distribution of 14C” value (“Vd apparent volume” below) was found to be 46.1 ± 2.4 mL and the “AUC.infin. of 14C” value is 345.7 ± 38.3 µg·h/mL. In series [3] (setting [6]), the “AUC4hr of 14C (first 4 hr)” value is 222.2 ± 15.3 µg·h/mL, the “C1T total body clearance of 14C” value came to 7.7 ± 0.8 mL/h, the “Cmax of 14C” value was 65100 ± 8200 ng/mL and the “T1/2abs absorption half-life of 14C” value stood at 8.9 ± 0.9 min. Besides, in series [3] (setting [6]), the “Vd apparent volume” value was 85.5 ± 28.1 mL and the “AUC.infin. of 14C” value was determined as 810.6 ± 81.7 µg·h/mL.
For `N[14C](=O)c1ccccc1O` [^14 C-SAM], in series [2] (setting [7]), the “C1T total body clearance of 14C” value is 543.7 ± 89.5 mL/h, the “Cmax of 14C” value was 1800 ± 300 ng/mL, the “T1/2β elimination half-life of 14C” value came to 1.1 ± 0.24 h and the “Vd apparent volume” value turned out to be 975 ± 152 mL. For the same compound, the “AUC.infin. of 14C” value in series [2] (setting [7]) worked out at 1.9 ± 0.4 μ · hr/ml. For the same compound, in series [2] (setting [8]), the “C1T total body clearance of 14C” value stood at 501.1 ± 64.9 mL/h, the “Cmax of 14C” value stood at 3700 ± 500 ng/mL, the “T1/2β elimination half-life of 14C” value worked out at 1.1 ± 0.1 h and the “Vd apparent volume” value is 824 ± 156 mL. The “AUC.infin. of 14C” value in series [2] (setting [8]) amounted to 3.9 ± 0.5 μ · hr/ml.
